Molecules are shown by their SMILES. *1 amine or outer side, *2 acyl side, *3 side chain or, on linkers, in order; H or OH if unused. Where a SMILES comes first, the peptide text is derived from it. Bridges are numbered along the chain shown (N, C = ends). [ ]: non-standard residue; d: D form. The star is where a group is joined. Phe(3,5-F2) = N[C@@H](Cc1cc(F)cc(F)c1)C(=O)O; Morpholine(3S-CO) = O=C(O)[C@@H]1COCCN1; Pro(4R-Me) = C[C@H]1CN[C@H](C(=O)O)C1; NH(3,4-Me2-phenyl) = Cc1ccc(N*)cc1C; NMeaThr = CN[C@H](C(=O)O)[C@H](C)O; Hyp = O=C(O)[C@@H]1C[C@@H](O)CN1; NH(4-Et-phenyl) = CCc1ccc(N*)cc1; NH(4-Me-phenyl) = Cc1ccc(N*)cc1; aThr = C[C@H](O)[C@H](N)C(=O)O; Pip = O=C(O)[C@@H]1CCCCN1; X1 = N#Cc1cc(N*)ccc1F; CO = O=C([*:1])[*:2]

One assay addresses T1, Sa-ClpP (Staphylococcus aureus, UniProt Q2G036).
T1 construct: made in house; host or cells: E. coli BL21(DE3)
T1 sequence (Q2G036 1-195): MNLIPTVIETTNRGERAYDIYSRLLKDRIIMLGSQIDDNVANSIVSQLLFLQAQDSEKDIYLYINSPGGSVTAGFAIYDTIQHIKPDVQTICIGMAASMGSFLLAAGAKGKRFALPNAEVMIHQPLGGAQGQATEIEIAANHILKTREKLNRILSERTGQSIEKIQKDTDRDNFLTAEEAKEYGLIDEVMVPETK
Nature of the assay: ADEP displacement fluorescence polarization assay (FP probe ADEP 2591). The format is binding.
Conditions: not given
The protocol:
A fluorescence polarization (FP) assay was used to determine the activity of the disclosed compounds in displacing an ADEP analogue from ClpP. Briefly, the assay was performed in black 384 well, flat bottom, low volume plates (Greiner Bio-One, Monroe, N.C., catalog #784076). 20 μL of a pre-equilibrated (1 hr, room temperature) master mix (15 μM Sa-ClpP, 2% DMSO (v/v) and 50 nM FP probe in Tris*HCl, pH 8.0)) was pipetted into each well using a Well-Mate (Thermo Scientific, Waltham, Mass.). Sa-ClpP was prepared as described above for the ClpP activation assay. The FP probe was ADEP 2591 (structure shown above). The ADEP 2591 comprises a TAMRA fluorophore linked to a core based on modified ADEP 2378 via a short alkyl linker. Using pin transfer, approximately 0.4 μL (2% v/v DMSO) of each compound or control was added per well. After addition of compounds and controls, plates were allowed to incubate for an additional 120 minutes at room temperature. All assays were performed in triplicate. Polarization was monitored using an EnVision Multilabel reader (Perkin-Elmer, Waltham, Mass.) by exciting the FP probe at 530±25 nm, and monitoring fluorescence intensity of both parallel and perpendicular polarized light at 579±25 nm. Readout was in millipolarization units (mP).
Data collected was normalized to values obtained from positive (200 μM ADEP 2378) or negative (DMSO) controls. Curves were fit with non-linear regression using the equation “log [inhibitor] vs. Response-variable slope (four parameters)-symmetrical” in the program Prism 6 (GraphPad Software, La Jolla, Calif. USA, www.graphpad.com). The structures for ADEP 2378 and ADEP 2591 are shown above. ADEP 2378 is (E)-N—((S)-1-(((2R,6S,8aS,14aS,20S,23aS)-2,6-dimethyl-5,8,14,19,23-pentaoxooctadecahydro-1H,5H,14H,19H-pyrido[2,1-i]dipyrrolo[2,1-c:2′,1′-1][1]oxa[4,7,10,13]tetraazacyclohexadecin-20-yl)amino)-1-oxo-3-phenylpropan-2-yl)pent-2-enamide. ADEP 2591 is 5-(3-(3-((6S,9S,11aS,17S,20aS)-6,10-dimethyl-5,8,11,16,20-pentaoxo-17-((S)-2-((E)-pent-2-enamido)-3-phenylpropanamido)hexadecahydro-1H,5H,16H-dipyrrolo[2,1-c:2′,1′-1][1]oxa[4,7,10,13]tetraazacyclohexadecin-9-yl)propyl)thioureido)-2-(6-(dimethylamino)-3-(dimethyliminio)-3H-xanthen-9-yl)benzoate.
For orientation: In fluorescence polarisation assays a small probe gives low polarisation when free and higher when bound to something large.
Take `Cc1ccc(NC(=O)N[C@@H](Cc2cc(F)cc(F)c2)C(=O)N[C@@H]2C(=O)N3CCC[C@H]3C(=O)N3CCOC[C@H]3C(=O)N[C@@H](C)C(=O)N3C[C@H](C)C[C@H]3C(=O)O[C@H]2C)cc1` [Compound 210, (S)-3-(3,5-difluorophenyl)-2-(3-(p-tolyl)ureido)-N-((6aS,12S,13S,15aS,17R,21S,23aS)-13,17,21-trimethyl-6,11,15,20,23-pentaoxooctadecahydro-6H,11H,15H-[1,4]oxazino[3,4-i]dipyrrolo[2,1-c:2′,1′-l][1]oxa[4,7,10,13]tetraazacyclohexadecin-12-yl)propanamide] ({NH(4-Me-phenyl)-CO}-[Phe(3,5-F2)][aThr]P[Morpholine(3S-CO)]A[Pro(4R-Me)]; ester 2-C): the IC50 amounted to 7.1 ± 0.2 µM.

The molecule `CCc1ccc(NC(=O)N[C@@H](Cc2cc(F)cc(F)c2)C(=O)N[C@@H]2C(=O)N3C[C@H](O)C[C@H]3C(=O)N3CCCC[C@H]3C(=O)N[C@@H](C)C(=O)N3C[C@H](C)C[C@H]3C(=O)O[C@H]2C)cc1` [Compound 211, (S)-3-(3,5-difluorophenyl)-2-(3-(4-ethylphenyl)ureido)-N-((2R,6S,8aS,14aS,16R,20S,21S,23aS)-16-hydroxy-2,6,21-trimethyl-5,8,14,19,23-pentaoxooctadecahydro-1H,5H,14H,19H-pyrido[2,1-i]dipyrrolo[2,1-c:2′,1′-l][1]oxa[4,7,10,13]tetraazacyclohexadecin-20-yl)propanamide] ({NH(4-Et-phenyl)-CO}-[Phe(3,5-F2)][aThr][Hyp][Pip]A[Pro(4R-Me)]; ester 2-C) displayed an IC50 of 6.8 ± 0.3 µM. With `Cc1ccc(NC(=O)N[C@@H](Cc2cc(F)cc(F)c2)C(=O)N[C@@H]2C(=O)N3C[C@H](O)C[C@H]3C(=O)N3CCCC[C@H]3C(=O)N[C@@H](C)C(=O)N3C[C@H](C)C[C@H]3C(=O)O[C@H]2C)cc1C` [Compound 212, (S)-3-(3,5-difluorophenyl)-2-(3-(3,4-dimethylphenyl)ureido)-N-((2R,6S,8aS,14aS,16R,20S,21S,23aS)-16-hydroxy-2,6,21-trimethyl-5,8,14,19,23-pentaoxooctadecahydro-1H,5H,14H,19H-pyrido[2,1-i]dipyrrolo[2,1-c:2′,1′-l][1]oxa[4,7,10,13]tetraazacyclohexadecin-20-yl)propanamide] ({NH(3,4-Me2-phenyl)-CO}-[Phe(3,5-F2)][aThr][Hyp][Pip]A[Pro(4R-Me)]; ester 2-C), the concentration for half-maximal inhibition (IC50) worked out at 6.9 ± 0.3 µM. Same read-out and setting: as for `Cc1ccc(NC(=O)N[C@@H](Cc2cc(F)cc(F)c2)C(=O)N[C@@H]2C(=O)N3C[C@H](O)C[C@H]3C(=O)N3CCOC[C@H]3C(=O)N[C@@H](C)C(=O)N3C[C@H](C)C[C@H]3C(=O)O[C@H]2C)cc1C` [Compound 215, (S)-3-(3,5-difluorophenyl)-2-(3-(3,4-dimethylphenyl)ureido)-N-((6aS,8R,12S,13S,15aS,17R,21S,23aS)-8-hydroxy-13,17,21-trimethyl-6,11,15,20,23-pentaoxooctadecahydro-6H,11H,15H-[1,4]oxazino[3,4-i]dipyrrolo[2,1-c:2′,1′-l][1]oxa[4,7,10,13]tetraazacyclohexadecin-12-yl)propanamide] ({NH(3,4-Me2-phenyl)-CO}-[Phe(3,5-F2)][aThr][Hyp][Morpholine(3S-CO)]A[Pro(4R-Me)]; ester 2-C), the figure is 6.8 ± 0.3 µM; as for `Cc1ccc(NC(=O)N[C@@H](Cc2cc(F)cc(F)c2)C(=O)N[C@H]2COC(=O)[C@@H]3C[C@@H](C)CN3C(=O)[C@H](C)NC(=O)C3CCCCN3C(=O)[C@@H]3C[C@@H](O)CN3C2=O)cc1` (stereo partly drawn) [Compound 323, (S)-3-(3,5-difluorophenyl)-N-((2R,6S,8aR,14aS,16R,20S,23aS)-16-hydroxy-2,6-dimethyl-5,8,14,19,23-pentaoxooctadecahydro-1H,5H,14H,19H-pyrido[2,1-i]dipyrrolo[2,1-c:2′,1′-l][1]oxa[4,7,10,13]tetraazacyclohexadecin-20-yl)-2-(3-(p-tolyl)ureido)propanamide], 9.18 ± 0.4 µM. On the same count and under the same terms, the same measure for `C[C@@H]1C[C@H]2C(=O)O[C@@H](C)[C@H](NC(=O)[C@H](Cc3cc(F)cc(F)c3)NC(=O)Nc3ccc(F)c(C#N)c3)C(=O)N3CCC[C@H]3C(=O)N3CCCC[C@H]3C(=O)N[C@@H](C)C(=O)N2C1` [Compound 324, (S)-2-(3-(3-cyano-4-fluorophenyl)ureido)-3-(3,5-difluorophenyl)-N-((2R,6S,8aS,14aS,20S,21S,23aS)-2,6,21-trimethyl-5,8,14,19,23-pentaoxooctadecahydro-1H,5H,14H,19H-pyrido[2,1-i]dipyrrolo[2,1-c:2′,1′-l][1]oxa[4,7,10,13]tetraazacyclo-hexadecin-20-yl)propanamide] ({X1-CO}-[Phe(3,5-F2)][aThr]P[Pip]A[Pro(4R-Me)]; ester 2-C): 7.93 ± 0.3 µM; for `C[C@@H]1C[C@H]2C(=O)OC[C@H](NC(=O)[C@H](Cc3cc(F)cc(F)c3)NC(=O)Nc3ccc4c(c3)OCO4)C(=O)N3C[C@H](O)C[C@H]3C(=O)N3CCCCC3C(=O)N[C@@H](C)C(=O)N2C1` (stereo partly drawn) [Compound 325, (S)-2-(3-(benzo[d][1,3]dioxol-5-yl)ureido)-3-(3,5-difluorophenyl)-N-((2R,6S,8aR,14aS,16R,20S,23aS)-16-hydroxy-2,6-dimethyl-5,8,14,19,23-pentaoxooctadecahydro-1H,5H,14H,19H-pyrido[2,1-i]dipyrrolo[2,1-c:2′,1′-l][1]oxa[4,7,10,13]tetraazacyclo-hexadecin-20-yl)propanamide]: 4.27 ± 0.2 µM. Same read-out and setting: as for `C[C@@H]1C[C@H]2C(=O)O[C@@H](C)[C@H](NC(=O)[C@H](Cc3cc(F)cc(F)c3)NC(=O)Nc3ccc(F)c(C#N)c3)C(=O)N3C[C@H](O)C[C@H]3C(=O)N3CCOC[C@H]3C(=O)N[C@@H](C)C(=O)N2C1` [Compound 326, (S)-2-(3-(3-cyano-4-fluorophenyl)ureido)-3-(3,5-difluorophenyl)-N-((6aS,8R,12S,13S,15aS,17R,21S,23aS)-8-hydroxy-13,17,21-trimethyl-6,11,15,20,23-pentaoxooctadecahydro-6H,11H,15H-[1,4]oxazino[3,4-i]dipyrrolo[2,1-c:2′,1′-l][1]oxa[4,7,10,13]tetraazacyclo-hexadecin-12-yl)propanamide] ({X1-CO}-[Phe(3,5-F2)][aThr][Hyp][Morpholine(3S-CO)]A[Pro(4R-Me)]; ester 2-C), the figure is 7.52 ± 0.3 µM.

The assay is the same for the next values; noted with them: displacement of FP probe ADEP 2591 from Sa-ClpP; read-out: ADEP Displacement IC50.
Turning to `Cc1ccc(NC(=O)N[C@@H](Cc2cc(F)cc(F)c2)C(=O)N[C@@H]2C(=O)N3CCC[C@H]3C(=O)N(C)[C@@H]([C@H](C)O)C(=O)N[C@@H](C)C(=O)N3C[C@H](C)C[C@H]3C(=O)O[C@H]2C)cc1` [Compound 208, (S)-3-(3,5-difluorophenyl)-N-((2R,6S,9S,11aS,17S,18S,20aS)-9-((S)-1-hydroxyethyl)-2,6,10,18-tetramethyl-5,8,11,16,20-pentaoxohexadecahydro-1H,5H,16H-dipyrrolo[2,1-c:2′,1′-l][1]oxa[4,7,10,13]tetraazacyclohexadecin-17-yl)-2-(3-(p-tolyl)ureido)propanamide] ({NH(4-Me-phenyl)-CO}-[Phe(3,5-F2)][aThr]P[NMeaThr]A[Pro(4R-Me)]; ester 2-C), the IC50 was determined as 6.52 ± 0.3 µM. Consider `Cc1ccc(NC(=O)N[C@@H](Cc2cc(F)cc(F)c2)C(=O)N[C@@H]2C(=O)N3CCC[C@H]3C(=O)N3CCCC[C@H]3C(=O)N[C@@H](C)C(=O)N3C[C@H](C)C[C@H]3C(=O)O[C@H]2C)cc1` [Compound 209, (S)-3-(3,5-difluorophenyl)-2-(3-(p-tolyl)ureido)-N-((2R,6S,8aS,14aS,20S,21S,23aS)-2,6,21-trimethyl-5,8,14,19,23-pentaoxooctadecahydro-1H,5H,14H,19H-pyrido[2,1-i]dipyrrolo[2,1-c:2′,1′-l][1]oxa[4,7,10,13]tetraazacyclohexadecin-20-yl)propanamide] ({NH(4-Me-phenyl)-CO}-[Phe(3,5-F2)][aThr]P[Pip]A[Pro(4R-Me)]; ester 2-C), for which the IC50 turned out to be 9 ± 0.4 µM.

By IC50 is commonly meant the concentration that inhibits the measured activity by half.

For the origin of these results see US10457707B2, “Substituted urea depsipeptide analogs as activators of the CLPP endopeptidase” (priority 2015, dated 2019).
